# Experimental data as given in ChEMBL document CHEMBL1129852, “Peptidyl -keto thiazole as potent thrombin inhibitors” (Bioorg Med Chem Lett, 1997).
# What was measured:
# [1] = target: T1, Serine protease 1 (Bos taurus, UniProt P00760); assay: Inhibition of trypsin
# T1 sequence (P00760 whole entry): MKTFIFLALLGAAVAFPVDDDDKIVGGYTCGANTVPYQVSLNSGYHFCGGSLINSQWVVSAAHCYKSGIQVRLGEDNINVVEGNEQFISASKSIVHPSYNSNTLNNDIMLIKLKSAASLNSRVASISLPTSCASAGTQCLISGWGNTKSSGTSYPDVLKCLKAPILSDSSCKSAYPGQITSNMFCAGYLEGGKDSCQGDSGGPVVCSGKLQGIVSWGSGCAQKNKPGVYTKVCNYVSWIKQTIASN
# [2] = target: Prothrombin (Homo sapiens, UniProt P00734); assay: Inhibition of thrombin
# [3] = target: Prolyl endopeptidase (Sus scrofa, UniProt P23687); assay: The compound was tested for the inhibitory activity against prolyl endo peptidase(PEP) enzyme
# Prolyl endopeptidase, sequence (P23687 whole entry): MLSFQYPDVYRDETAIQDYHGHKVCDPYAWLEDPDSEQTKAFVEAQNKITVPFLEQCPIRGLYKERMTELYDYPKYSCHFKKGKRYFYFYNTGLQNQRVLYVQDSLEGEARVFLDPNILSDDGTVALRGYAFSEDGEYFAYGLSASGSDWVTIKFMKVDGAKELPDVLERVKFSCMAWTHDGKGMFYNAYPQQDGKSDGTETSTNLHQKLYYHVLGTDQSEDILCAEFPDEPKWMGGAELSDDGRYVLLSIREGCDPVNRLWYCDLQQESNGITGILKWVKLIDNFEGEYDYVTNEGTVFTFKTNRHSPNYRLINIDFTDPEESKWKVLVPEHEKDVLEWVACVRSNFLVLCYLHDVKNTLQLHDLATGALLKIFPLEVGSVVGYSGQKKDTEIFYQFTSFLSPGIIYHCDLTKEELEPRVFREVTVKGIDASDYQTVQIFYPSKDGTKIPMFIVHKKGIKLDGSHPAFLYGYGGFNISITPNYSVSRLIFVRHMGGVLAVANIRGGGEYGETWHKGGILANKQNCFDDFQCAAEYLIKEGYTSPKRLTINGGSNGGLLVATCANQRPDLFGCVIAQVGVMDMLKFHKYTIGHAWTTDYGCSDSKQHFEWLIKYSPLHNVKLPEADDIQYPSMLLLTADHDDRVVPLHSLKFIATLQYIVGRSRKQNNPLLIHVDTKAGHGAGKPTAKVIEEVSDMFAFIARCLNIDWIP
# [4] = The compound was tested for the inhibitory activity against elastase enzyme; type: functional; details: Homo sapiens
# [5] = Relative inhibition of trypsin and thrombin; set-up: reference not given here
smiles,measurement,setting,value
O=C(c1nccs1)[C@H]1CCCN1C(=O)[C@@H]1CCCN1C(=O)CCCc1ccccc1,IC50,[1],> 1000 µM
same,IC50,[2],> 1000 µM
same,IC50,[3],0.0044 µM
same,IC50,[4],> 1000 µM
N=C(N)NCCC[C@@H](NC(=O)[C@@H]1CCCCN1C(=O)[C@H](N)Cc1ccccc1)C(=O)c1nccs1,IC50,[2],0.73 µM
CC(C)[C@H](NC(=O)[C@@H]1CCCN1C(=O)CCCc1ccccc1)C(=O)c1nccs1,IC50,[1],> 1000 µM
same,IC50,[2],> 1000 µM
same,IC50,[3],7.7 µM
same,IC50,[4],> 1000 µM
N=C(N)NCCC[C@H](NC(=O)[C@@H]1CCCCN1C(=O)[C@H](N)Cc1ccccc1)C(=O)c1nccs1,IC50,[1],41 µM
N=C(N)NCCC[C@H](NC(=O)[C@@H]1CCN1C(=O)[C@H](N)Cc1ccccc1)C(=O)c1nccs1,IC50,[1],0.009 µM
same,IC50,[2],0.003 µM
CC(C)[C@@H](NC(=O)[C@H](N)Cc1ccccc1)C(=O)N[C@@H](CCCNC(=N)N)C(=O)c1nccs1,IC50,[1],0.18 µM
same,IC50,[2],0.0086 µM
CC(=O)N[C@H](Cc1ccccc1)C(=O)N1CCC[C@H]1C(=O)N[C@H](CCCNC(=N)N)C(=O)c1nccs1,IC50,[1],0.23 µM
same,IC50,[2],2.3 µM
N=C(N)NCCC[C@@H](NC(=O)[C@@H]1CCCN1C(=O)CCc1ccccc1)C(=O)c1nccs1,IC50,[1],0.23 µM
same,IC50,[2],0.82 µM
same,Ratio,[5],0.3
C[C@H](NC(=O)[C@@H]1CCCN1C(=O)CCCc1ccccc1)C(=O)c1nccs1,IC50,[1],> 1000 µM
same,IC50,[2],> 1000 µM
same,IC50,[3],0.005 µM
same,IC50,[4],> 1000 µM
NCCCCC[C@H](NC(=O)[C@@H]1CCCN1C(=O)[C@H](N)Cc1ccccc1)C(=O)c1nccs1,IC50,[1],16 µM
same,IC50,[2],14 µM
same,Ratio,[5],1.1
CC(=O)N[C@H](Cc1ccccc1)C(=O)N1CCC[C@H]1C(=O)N[C@H](CCCN=C(N)N)C(=O)c1nccs1,Ratio,[5],0.1
NCCCC[C@H](NC(=O)[C@@H]1CCCN1C(=O)CCCc1ccccc1)C(=O)c1nccs1,IC50,[1],2.4 µM
same,IC50,[2],46 µM
same,IC50,[3],7.8 µM
NCCCC[C@H](NC(=O)[C@@H]1CCCN1C(=O)[C@H](N)Cc1ccccc1)C(=O)c1nccs1,IC50,[1],1.2 µM
same,IC50,[2],0.26 µM
same,Ratio,[5],4.6
NC(N)=NCCC[C@@H](NC(=O)[C@@H]1CCCCN1C(=O)[C@H](N)Cc1ccccc1)C(=O)c1nccs1,Ratio,[5],56
NC(N)=NCCC[C@H](NC(=O)[C@@H]1CCCN1C(=O)[C@H](N)Cc1ccccc1)C(=O)c1nccs1,IC50,[1],0.0042 µM
same,IC50,[2],0.0015 µM
same,Ratio,[5],2.8
N=C(N)NCCC[C@@H](NC(=O)[C@@H]1CCCN1C(=O)[C@@H](Cc1ccccc1)NC(=O)OCc1ccccc1)C(=O)c1nccs1,IC50,[1],0.0016 µM
same,IC50,[2],0.002 µM
same,Ratio,[5],0.8
NC(N)=NCCC[C@H](NC(=O)[C@@H]1CCN1C(=O)[C@H](N)Cc1ccccc1)C(=O)c1nccs1,Ratio,[5],3
CC(C)[C@@H](NC(=O)[C@H](N)Cc1ccccc1)C(=O)N[C@@H](CCCN=C(N)N)C(=O)c1nccs1,Ratio,[5],21
N=C(N)NCCC[C@H](NC(=O)[C@@H]1CCCN1C(=O)CCCc1ccccc1)C(=O)c1nccs1,IC50,[1],0.23 µM
same,IC50,[2],2 µM
same,IC50,[3],28 µM
same,IC50,[4],> 1000 µM
